Values quoted from earlier work in patent publication US11446297B2, “Methods for treating hemolytic diseases and sickle cell disease” (Purdue Research, priority 2015, dated 2022).

Target: Syk (Homo sapiens, UniProt P43405)
Conditions: first IC column; kinase assay; Inactive@ 80 μM (r14)

## COc1ccc2c(c1)c(/C=C1\C(=O)Nc3ccc(S(=O)(=O)N(C)C)cc31)cn2C [Compd 6]
  IC@ (result in words): Inactive@
